This note sets out measurements from patent publication US12018041B2, “Metal tin cyclized perylene diimide derivative, method for preparing the same, and method for using the same” (Dalian University of Technology, priority 2019, dated 2024).

A short description of series [1]: Transient absorption spectrum and triplet decay. In kind it is physicochemical. As to conditions: dynamic absorption fitting at 485 nm in the transient absorption spectrum. As to the method: (2) The transient absorption spectrum of 6-undecylamine derived tin cyclized perylene diimide (shown in FIG. 2) was tested, and a strong excited triplet absorption at 400 nm-515 nm was detected.
The decay time is 17 μs. 6-undecylamine derived tin cyclized perylene diimide has a relatively long triplet time life.

The nature of series [2]: UV-Vis absorption spectrum in a solution state. Format: physicochemical. As to conditions: compared with the corresponding perylene diimide without tin ring.
A short description of series [3]: Singlet oxygen quantum yield by DPBF capture in DCM. Format: physicochemical. As to conditions: absorbance change at 414 nm. From the text:
(4) The triplet energy of the photosensitizer can be transferred to triplet oxygen molecules (^3O2), to produce singlet oxygen molecules (^1O2). 1,3-diphenylisobenzofuran (DPBF) is used to capture singlet oxygen, and at the same time, DPBF itself is oxidized by ^1O2, resulting in a decrease in the absorption peak of DPBF at 414 nm in the UV-visible absorption spectrum. The singlet oxygen quantum yield of the photosensitizer molecule can be calculated by monitoring the absorbance change of DPBF at 414 nm. FIG. 4 is a graph showing decay of a UV-visible absorption of DPBF in DCM with time under the influence of 6-undecylamine derived tin cyclized perylene diimide as a photosensitizer. It is known from calculation that the singlet oxygen quantum yield of 6-undecylamine derived tin cyclized perylene diimide is 40%.

Another series concerns cervical cancer cells. The series can be described thus: DCFH-DA reactive oxygen imaging in cervical cancer cells. Format: cell-based. As to conditions: cervical cancer cells with DCFH-DA. The source says: (5) The application of photosensitizers to photodynamic therapy requires the photosensitizers to have low cytotoxicity and capability of entering cells, and to achieve better singlet oxygen output in the cells. In cervical cancer cells, the fluorescent probe DCFH-DA, as a reactive oxygen detection reagent, is non-fluorescent and can freely penetrate the cell membrane to enter the cell. The reactive oxygen species (single oxygen) in the cells can oxidize the non-fluorescent DCFH to produce a fluorescent DCF, and the level of the reactive oxygen species can be known by detecting the fluorescence intensity of DCF. […] In the figure, fluorescence images of the cervical cancer cells, which are cultured in the presence of 6-undecylamine derived tin cyclized perylene diimide and DCFH-DA, subjected to no light, and 10 s, 20 s, 30 s of […] green light irradiation are respectively presented from left to right. It is known from the figure that the singlet oxygen generated from photosensitization of 6-undecylamine derived tin cyclized perylene diimide oxidizes DCFH to produce fluorescent DCF, which makes the fluorescence of cervical cancer cells appear by imaging, and the imaging effect becomes better along with the time.

SMILES strings stand for the structures.

Turning to `CCCCCC(CCCCC)N1C(=O)c2ccc3c4ccc5c6c(c[c]7c(c8[c](cc(c2c38)C1=O)[Sn]7([CH2]CCC)[CH2]CCC)c64)C(=O)N(C(CCCCC)CCCCC)C5=O` [6-undecylamine derived tin cyclized perylene diimide], the Triplet decay time in series [1] came out at 17 μs. Moreover, in series [2], the Absorption spectrum result is given as “obvious red shift”. The “Singlet oxygen quantum yield” value in series [3] was 40%. In addition, the “irradiation time after which fluorescence intensity of cervical cancer cells no longer changes” value in the series on cervical cancer cells (420 nm green light irradiation) was found to be 20 s. In addition, the “singlet oxygen effect in cells (DCF fluorescence)” value with cervical cancer cells (no light and 10 s, 20 s, 30 s of 420 nm green light irradiation) was “good singlet oxygen effect in cells”.

The molecule `CCCCCC(CC(C)CCC)N1C(=O)c2ccc3c4ccc5c6c(c[c]7c(c8[c](cc(c2c38)C1=O)[Sn]7([CH2]CCC)[CH2]CCC)c64)C(=O)N(C(CCCCC)CC(C)CCC)C5=O` (centres unmarked) [Example B4] returned a Triplet decay time in series [1] of 17 μs. For the same molecule, in series [2], the Absorption spectrum entry is reported as “red shift”. The “Singlet oxygen quantum yield” value in series [3] is given as 47%.

Consider `CCC[CH2][Sn]1([CH2]CCC)[c]2cc3c4c(ccc5c6ccc7c8c(c[c]1c(c2c45)c86)C(=O)N(CC(C)C)C7=O)C(=O)N(CC(C)C)C3=O` [Example B6], for which the Triplet decay time in series [1] amounted to 18 μs. For the same molecule, in series [2], the Absorption spectrum result is reported as “red shift”. The “Singlet oxygen quantum yield” value in series [3] was determined as 29%.

Turning to `CCC[CH2][Sn]1([CH2]CCC)[c]2cc3c4c(ccc5c6ccc7c8c(c[c]1c(c2c45)c86)C(=O)N(CCCC(C)C)C7=O)C(=O)N(CCCCC(CC)CCC)C3=O` (centres unmarked) [Example B10], the Triplet decay time in series [1] was found to be 12 μs. The Absorption spectrum result in series [2] is listed as “red shift”. Also, in series [3], the “Singlet oxygen quantum yield” value stood at 26%.

`CCC[CH2][Sn]1([CH2]CCC)[c]2cc3c4c(ccc5c6ccc7c8c(c[c]1c(c2c45)c86)C(=O)N(c1ccc(C(C)(C)C)cc1)C7=O)C(=O)N(c1ccc(C(C)(C)C)cc1)C3=O` [Example B14] had a Triplet decay time in series [1] of 14 μs. Moreover, the Absorption spectrum result in series [2] is given as “red shift”. Moreover, the “Singlet oxygen quantum yield” value in series [3] is listed as 33%.

In the case of `CCC[CH2][Sn]1([CH2]CCC)[c]2cc3c4c(ccc5c6ccc7c8c(c[c]1c(c2c45)c86)C(=O)N(c1cccc2[nH]ncc12)C7=O)C(=O)N(c1cccc2[nH]ncc12)C3=O` [Example B16], in series [1], the Triplet decay time is recorded as 19 μs. The Absorption spectrum result in series [2] is on record as “red shift”. The “Singlet oxygen quantum yield” value in series [3] turned out to be 46%.

In series [1], `CCC[CH2][Sn]1([CH2]CCC)[c]2cc3c4c(ccc5c6ccc7c8c(c[c]1c(c2c45)c86)C(=O)N(c1cccc2ccccc12)C7=O)C(=O)N(c1cccc2ccccc12)C3=O` [Example B17] gave a Triplet decay time of 11 μs. In series [2], the Absorption spectrum result was “red shift”. In addition, in series [3], the “Singlet oxygen quantum yield” value is on record as 36%.

`CCC[CH2][Sn]1([CH2]CCC)[c]2cc3c4c(ccc5c6ccc7c8c(c[c]1c(c2c45)c86)C(=O)N(c1ccncc1)C7=O)C(=O)N(c1ccncc1)C3=O` [Example B20] showed a Triplet decay time in series [1] of 25 μs. For the same molecule, the Absorption spectrum entry in series [2] is reported as “red shift”. For the same molecule, the “Singlet oxygen quantum yield” value in series [3] is recorded as 42%.

In the case of `CCC[CH2][Sn]1([CH2]CCC)[c]2cc3c4c(ccc5c6ccc7c8c(c[c]1c(c2c45)c86)C(=O)N(C1CCNCC1)C7=O)C(=O)N(C1CCNCC1)C3=O` [Example B22], in series [1], the Triplet decay time worked out at 21 μs. Further, the Absorption spectrum result in series [2] was “red shift”. Besides, the “Singlet oxygen quantum yield” value in series [3] was 44%.
